Read-outs that look alike come from different tables or passages of the source.
Legend:
[1] = biological target: T1, CAMK1G (CAMKI gamma) (Homo sapiens, UniProt Q96NX5); experiment: SelectScreen ZLYTE; format: biochemical; details: INX-0315 at 100nM
T1 construct: purchased Thermo Fisher Scientific SelectScreen (plus Nanosyn / Reaction Biology for CDK/cyclin lines)
Excerpt: (§1) INX-315 was first evaluated in the SelectScreen Biochemical Kinase Profiling at Thermo Fisher Scientific (Madison, WI). The primary screen consisted of INX-315 dosed at a single concentration of 100 nmol/L in 1% DMSO across each platform within the SelectScreen array of assays, LanthaScreen Eu Kinase Binding Assay; AdaptaScreen; and Z'LyteScreen using preestablished conditions at Thermo Fisher Scientific as shown in Supplementary Table S2. […] The follow-up screen consisted of 10-point dose–response curves for INX-315 from 1 µmol/L to 0.0495 nmol/L.

[2] = biological target: T2, CAMK2B (CaMKII beta) (Homo sapiens, UniProt Q13554); experiment: SelectScreen ZLYTE; format: biochemical; details: INX-0315 at 100nM
T2 construct: purchased Thermo Fisher Scientific SelectScreen (plus Nanosyn / Reaction Biology for CDK/cyclin lines)
Excerpt: as §1

[3] = biological target: T3, EPHB4 (Homo sapiens, UniProt P54760); experiment: SelectScreen ZLYTE; format: biochemical; details: INX-0315 at 100nM
T3 construct: purchased Thermo Fisher Scientific SelectScreen (plus Nanosyn / Reaction Biology for CDK/cyclin lines)
T3 sequence (P54760 16-987): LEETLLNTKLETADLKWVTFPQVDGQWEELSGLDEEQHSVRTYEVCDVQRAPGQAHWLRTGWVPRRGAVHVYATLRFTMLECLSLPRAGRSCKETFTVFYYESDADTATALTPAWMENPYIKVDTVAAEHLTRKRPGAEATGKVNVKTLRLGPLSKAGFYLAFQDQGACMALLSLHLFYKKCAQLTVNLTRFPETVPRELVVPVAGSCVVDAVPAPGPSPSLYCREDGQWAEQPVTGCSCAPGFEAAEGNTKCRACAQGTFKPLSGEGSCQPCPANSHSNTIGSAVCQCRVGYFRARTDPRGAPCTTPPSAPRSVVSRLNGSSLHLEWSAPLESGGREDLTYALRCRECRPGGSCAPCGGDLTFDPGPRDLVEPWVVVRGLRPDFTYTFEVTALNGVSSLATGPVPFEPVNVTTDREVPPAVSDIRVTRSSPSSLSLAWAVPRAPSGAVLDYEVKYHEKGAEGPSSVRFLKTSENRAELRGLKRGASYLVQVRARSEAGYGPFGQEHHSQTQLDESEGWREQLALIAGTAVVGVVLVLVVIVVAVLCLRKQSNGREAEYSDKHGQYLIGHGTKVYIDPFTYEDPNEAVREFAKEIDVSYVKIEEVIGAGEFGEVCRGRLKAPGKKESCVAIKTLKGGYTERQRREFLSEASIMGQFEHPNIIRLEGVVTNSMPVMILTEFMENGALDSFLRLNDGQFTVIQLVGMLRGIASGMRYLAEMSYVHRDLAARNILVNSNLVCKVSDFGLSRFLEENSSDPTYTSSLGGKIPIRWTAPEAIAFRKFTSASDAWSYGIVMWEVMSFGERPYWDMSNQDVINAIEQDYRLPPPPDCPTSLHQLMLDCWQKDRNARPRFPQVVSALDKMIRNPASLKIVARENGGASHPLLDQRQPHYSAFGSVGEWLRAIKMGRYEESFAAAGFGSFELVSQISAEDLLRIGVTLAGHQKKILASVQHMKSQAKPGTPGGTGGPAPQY
Excerpt: as §1

[4] = biological target: T4, FGR (Homo sapiens, UniProt P09769); experiment: SelectScreen ZLYTE; format: biochemical; details: INX-0315 at 100nM
T4 construct: purchased Thermo Fisher Scientific SelectScreen (plus Nanosyn / Reaction Biology for CDK/cyclin lines)
T4 sequence (P09769 whole entry): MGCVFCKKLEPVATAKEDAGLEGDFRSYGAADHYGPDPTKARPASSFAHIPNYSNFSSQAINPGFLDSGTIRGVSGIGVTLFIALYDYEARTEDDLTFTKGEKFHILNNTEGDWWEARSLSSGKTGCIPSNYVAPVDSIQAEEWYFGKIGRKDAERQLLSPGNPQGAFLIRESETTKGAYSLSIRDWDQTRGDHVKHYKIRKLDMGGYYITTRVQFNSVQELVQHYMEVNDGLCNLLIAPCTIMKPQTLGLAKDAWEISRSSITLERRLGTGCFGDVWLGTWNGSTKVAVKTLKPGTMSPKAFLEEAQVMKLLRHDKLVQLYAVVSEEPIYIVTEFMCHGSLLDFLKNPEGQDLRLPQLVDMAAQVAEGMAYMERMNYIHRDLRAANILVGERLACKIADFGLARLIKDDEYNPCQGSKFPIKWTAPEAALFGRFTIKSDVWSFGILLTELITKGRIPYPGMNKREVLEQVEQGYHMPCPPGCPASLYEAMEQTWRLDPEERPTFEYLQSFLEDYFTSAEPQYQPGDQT
Excerpt: as §1

[5] = biological target: T5, FLT3 (Homo sapiens, UniProt P36888); experiment: SelectScreen ZLYTE; format: biochemical; details: INX-0315 at 100nM
T5 construct: purchased Thermo Fisher Scientific SelectScreen (plus Nanosyn / Reaction Biology for CDK/cyclin lines)
T5 sequence (P36888 27-993): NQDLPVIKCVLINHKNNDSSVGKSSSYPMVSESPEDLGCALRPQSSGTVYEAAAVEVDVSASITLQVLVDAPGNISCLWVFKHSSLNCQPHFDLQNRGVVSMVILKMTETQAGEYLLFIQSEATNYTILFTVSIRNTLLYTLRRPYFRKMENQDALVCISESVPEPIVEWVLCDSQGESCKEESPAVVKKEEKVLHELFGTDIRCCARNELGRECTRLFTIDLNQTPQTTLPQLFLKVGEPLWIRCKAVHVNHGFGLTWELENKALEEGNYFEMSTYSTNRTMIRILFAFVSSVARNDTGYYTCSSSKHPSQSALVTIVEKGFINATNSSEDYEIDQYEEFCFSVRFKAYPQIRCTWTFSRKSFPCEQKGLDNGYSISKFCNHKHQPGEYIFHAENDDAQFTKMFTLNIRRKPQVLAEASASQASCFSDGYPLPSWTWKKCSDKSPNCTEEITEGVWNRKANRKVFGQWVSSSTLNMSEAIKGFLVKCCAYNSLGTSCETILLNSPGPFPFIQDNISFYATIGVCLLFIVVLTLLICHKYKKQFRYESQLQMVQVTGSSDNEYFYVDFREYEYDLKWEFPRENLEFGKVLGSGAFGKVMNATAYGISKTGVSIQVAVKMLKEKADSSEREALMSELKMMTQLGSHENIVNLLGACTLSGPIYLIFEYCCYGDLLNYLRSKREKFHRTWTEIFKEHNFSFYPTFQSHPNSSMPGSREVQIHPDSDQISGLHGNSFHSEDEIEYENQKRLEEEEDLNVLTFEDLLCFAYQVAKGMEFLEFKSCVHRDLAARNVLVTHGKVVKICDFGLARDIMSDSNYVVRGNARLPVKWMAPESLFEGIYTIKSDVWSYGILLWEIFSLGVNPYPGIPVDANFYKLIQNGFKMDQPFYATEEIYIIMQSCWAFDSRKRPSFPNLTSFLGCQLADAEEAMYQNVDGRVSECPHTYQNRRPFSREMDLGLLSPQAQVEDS
Excerpt: as §1

[6] = biological target: T6, KIT V559D (Homo sapiens, UniProt P10721, V559D); experiment: SelectScreen ZLYTE; format: biochemical; details: INX-0315 at 100nM
T6 construct: purchased Thermo Fisher Scientific SelectScreen (plus Nanosyn / Reaction Biology for CDK/cyclin lines)
T6 sequence (P10721 26-976 V559D): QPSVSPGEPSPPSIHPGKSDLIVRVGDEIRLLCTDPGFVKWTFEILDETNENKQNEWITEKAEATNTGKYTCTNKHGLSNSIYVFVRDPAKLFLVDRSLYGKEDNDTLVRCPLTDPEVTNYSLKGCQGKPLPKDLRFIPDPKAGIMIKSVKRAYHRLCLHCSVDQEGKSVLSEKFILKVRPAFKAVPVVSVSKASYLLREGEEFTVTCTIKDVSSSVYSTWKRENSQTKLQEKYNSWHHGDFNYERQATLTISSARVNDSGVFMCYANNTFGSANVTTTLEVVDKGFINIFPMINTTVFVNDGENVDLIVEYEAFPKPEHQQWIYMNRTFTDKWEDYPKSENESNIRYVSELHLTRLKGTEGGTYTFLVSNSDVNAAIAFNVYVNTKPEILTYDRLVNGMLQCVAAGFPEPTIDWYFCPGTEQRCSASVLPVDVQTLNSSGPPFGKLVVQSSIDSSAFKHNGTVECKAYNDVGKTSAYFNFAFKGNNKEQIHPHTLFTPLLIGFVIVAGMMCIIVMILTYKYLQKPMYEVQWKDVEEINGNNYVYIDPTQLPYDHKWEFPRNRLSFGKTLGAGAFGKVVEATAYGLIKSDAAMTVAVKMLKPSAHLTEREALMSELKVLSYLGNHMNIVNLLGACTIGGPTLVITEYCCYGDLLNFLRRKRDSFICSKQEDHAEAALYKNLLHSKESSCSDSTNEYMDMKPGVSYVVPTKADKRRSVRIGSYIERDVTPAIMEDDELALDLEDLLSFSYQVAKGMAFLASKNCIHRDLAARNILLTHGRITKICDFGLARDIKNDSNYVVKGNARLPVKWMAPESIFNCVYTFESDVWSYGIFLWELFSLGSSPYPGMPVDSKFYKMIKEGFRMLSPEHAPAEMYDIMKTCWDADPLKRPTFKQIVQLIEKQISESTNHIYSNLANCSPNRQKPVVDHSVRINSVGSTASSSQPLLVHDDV
Excerpt: as §1

[7] = biological target: T7, MATK (HYL) (Homo sapiens, UniProt P42679); experiment: SelectScreen ZLYTE; format: biochemical; details: INX-0315 at 100nM
T7 construct: purchased Thermo Fisher Scientific SelectScreen (plus Nanosyn / Reaction Biology for CDK/cyclin lines)
T7 sequence (P42679 whole entry): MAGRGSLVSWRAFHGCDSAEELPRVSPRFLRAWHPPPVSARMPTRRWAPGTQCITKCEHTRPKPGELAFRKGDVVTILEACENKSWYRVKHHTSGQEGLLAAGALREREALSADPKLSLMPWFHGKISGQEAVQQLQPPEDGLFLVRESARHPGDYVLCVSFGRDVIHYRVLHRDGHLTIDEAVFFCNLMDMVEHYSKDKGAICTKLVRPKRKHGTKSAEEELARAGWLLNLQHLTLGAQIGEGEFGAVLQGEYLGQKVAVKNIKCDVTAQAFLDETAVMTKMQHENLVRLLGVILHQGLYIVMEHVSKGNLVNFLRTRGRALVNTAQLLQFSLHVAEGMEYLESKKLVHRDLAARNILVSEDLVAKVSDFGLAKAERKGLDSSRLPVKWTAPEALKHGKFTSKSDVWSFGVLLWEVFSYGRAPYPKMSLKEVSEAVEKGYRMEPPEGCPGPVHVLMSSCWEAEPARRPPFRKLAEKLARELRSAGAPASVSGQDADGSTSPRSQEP
Excerpt: as §1

[8] = biological target: T8, MYLK2 (skMLCK) (Homo sapiens, UniProt Q9H1R3); experiment: SelectScreen ZLYTE; format: biochemical; details: INX-0315 at 100nM
T8 construct: purchased Thermo Fisher Scientific SelectScreen (plus Nanosyn / Reaction Biology for CDK/cyclin lines)
T8 sequence (Q9H1R3 whole entry): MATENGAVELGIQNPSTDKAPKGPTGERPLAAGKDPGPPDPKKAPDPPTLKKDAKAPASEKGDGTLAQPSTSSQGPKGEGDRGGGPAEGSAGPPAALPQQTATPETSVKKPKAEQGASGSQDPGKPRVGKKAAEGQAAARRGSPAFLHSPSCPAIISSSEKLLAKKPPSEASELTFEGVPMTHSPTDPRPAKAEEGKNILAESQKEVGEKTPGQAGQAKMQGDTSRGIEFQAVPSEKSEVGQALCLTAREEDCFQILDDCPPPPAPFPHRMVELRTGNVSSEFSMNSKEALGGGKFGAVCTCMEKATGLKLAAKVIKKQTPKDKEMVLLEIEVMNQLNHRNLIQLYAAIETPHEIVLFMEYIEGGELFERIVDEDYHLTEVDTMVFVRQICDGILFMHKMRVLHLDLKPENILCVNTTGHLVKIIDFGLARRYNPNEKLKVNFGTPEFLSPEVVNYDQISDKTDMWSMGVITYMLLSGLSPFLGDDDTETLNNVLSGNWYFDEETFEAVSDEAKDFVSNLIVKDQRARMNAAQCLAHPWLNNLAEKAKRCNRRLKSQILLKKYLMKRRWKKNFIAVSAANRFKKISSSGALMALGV
Excerpt: as §1

[9] = biological target: T9, SRC N1 (Homo sapiens, UniProt P12931); experiment: SelectScreen ZLYTE; format: biochemical; details: INX-0315 at 100nM
T9 construct: purchased Thermo Fisher Scientific SelectScreen (plus Nanosyn / Reaction Biology for CDK/cyclin lines)
Excerpt: as §1

[10] = biological target: T10, STK23 (MSSK1) (Homo sapiens, UniProt Q9UPE1); experiment: SelectScreen ZLYTE; format: biochemical; details: INX-0315 at 100nM
T10 construct: purchased Thermo Fisher Scientific SelectScreen (plus Nanosyn / Reaction Biology for CDK/cyclin lines)
Excerpt: as §1

[11] = test system: five cell lines with CCNE1 amplification (ovarian cancer); experiment: CellTiter Glo viability assay; format: cell-based; details: 144 h
[12] = test system: MKN1 cells; experiment: Cell cycle flow cytometry; format: cell-based; details: 24 hours, 100 nmol/L
[13] = test system: ST4316B PDX; experiment: PDX tumor growth; format: in vivo, mice; details: monotherapy; ribociclib 50 mg/kg per day
Experimental: (§2) PDX models were performed by Crown Biosciences (OV5398, GA0103, and GA0114) or XenoSTART (ST4316B). Tumor fragments from stock mice were harvested and implanted subcutaneously into the flank of NOD/SCID mice (OV5398, RRID:IMSR_JAX:001303), BALB/c nude mice (GA0103 and GA0114, RRID:IMSR_RJ:BALB-C-NUDE), or athymic nude mice (Crl:NU(NCr)-Foxn1nu, RRID:IMSR_CRL:490) (ST4316B). For CDX models, female athymic nude mice (Crl:NU(NCr)-Foxn1nu, RRID:IMSR_CRL:490) were inoculated with 1 × 10^7 50% Cultrex OVCAR3 cells in the flank. Experiments performed using MMTV-rtTA/tetO-HER2 mice were performed at the Peter MacCallum Cancer Centre. Tumor formation was induced and sustained in female mice with doxycycline as previously described ([33]). Randomization and treatment in all models began when median tumor volume reached a maximum of 300 mm^3.
(§3) Mice were treated via oral gavage. INX-315 was prepared weekly in 100% PEG400; abemaciclib was prepared as previously described ([33]) and ribociclib (Selleckchem, S7440) was prepared weekly in 0.5% methyl cellulose. To generate abemaciclib-resistant MMTV-rtTA/tetO-HER2 tumors, mice were treated continuously with abemaciclib at a dose of 75 mg/kg until tumors resumed growth as described in text. At this point and in all other MMTV-rtTA/tetO-HER2 mice experiments, mice were randomized into treatment groups and abemaciclib was administered to indicated groups at a dose of 50 mg/kg. In all MMTV-rtTA/tetO-HER2 mice experiments, INX-315 was administered at a dose of 50 mg/kg twice daily. For PDX model ST4316B, ribociclib was administered at 50 mg/kg per day.

[14] = test system: gastric adenocarcinoma PDX GA0103; experiment: PDX tumor growth; format: in vivo, mice; details: oral gavage, 56 days
Experimental: as §2, §3

[15] = test system: gastric adenocarcinoma PDX GA0114; experiment: PDX tumor growth; format: in vivo, mice; details: 100 mg/kg twice daily, 5-week experiment
Experimental: as §2, §3

[16] = pKa; format: physicochemical
[17] = Microsomal stability assay; format: in vitro ADME
Experimental: Microsomal stability was determined by Absorption Systems (Exton, PA). INX-315 was tested in mixed-gender human liver microsomes (Lot #1010420), male Sprague-Dawley rat liver microsomes (Lot #1910100), male CD-1 mouse liver microsomes (Lot #2010017), and male beagle dog liver microsomes (Lot #2010046) were purchased from XenoTech/BioIVT by Absorption Systems. The reaction mixture, minus NADPH, was prepared as described below. The test article was added into the reaction mixture at a final concentration of 1 µmol/L. The control compound, testosterone, was run simultaneously with the test article in a separate reaction. The reaction mixture (without cofactor) was equilibrated in a shaking water bath at 37°C for 5 minutes. The reaction was initiated by the addition of the cofactor, and the mixture was incubated in a shaking water bath at 37°C. Aliquots (100 µL) were withdrawn at 0, 10, 20, 30, and 60 minutes. Test article and testosterone samples were immediately combined with 400 µL of ice-cold 50/50 acetonitrile (ACN)/H2O containing 0.1% formic acid and internal standard to terminate the reaction. The samples were then mixed and centrifuged to precipitate proteins. All samples were assayed by LC-MS/MS using electrospray ionization. The peak area response ratio (PARR) of analyte to internal standard at each time point was compared to the PARR at time 0 to determine the percent remaining at each time point. Half-lives and clearance were calculated using GraphPad software (RRID:SCR_002798), fitting to a single-phase exponential decay equation.

T1 sequence (Q96NX5 whole entry): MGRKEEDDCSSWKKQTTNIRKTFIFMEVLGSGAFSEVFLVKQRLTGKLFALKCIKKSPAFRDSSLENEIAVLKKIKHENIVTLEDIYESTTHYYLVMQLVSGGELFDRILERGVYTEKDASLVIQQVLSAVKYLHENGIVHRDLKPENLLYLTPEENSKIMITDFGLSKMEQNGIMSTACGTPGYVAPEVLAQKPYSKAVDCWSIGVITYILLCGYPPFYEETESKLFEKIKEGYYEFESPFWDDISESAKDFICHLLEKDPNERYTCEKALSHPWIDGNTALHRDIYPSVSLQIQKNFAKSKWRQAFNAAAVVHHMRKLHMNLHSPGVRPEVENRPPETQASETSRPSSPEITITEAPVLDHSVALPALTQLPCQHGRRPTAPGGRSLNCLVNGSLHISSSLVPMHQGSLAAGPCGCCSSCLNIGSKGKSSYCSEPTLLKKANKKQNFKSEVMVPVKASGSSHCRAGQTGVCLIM

**Q.** With `NS(=O)(=O)c1ccc(Nc2ncc3cc4n(c3n2)C2(CCCCC2)C(=O)NN4)cc1` [INX-315] as the compound, how does the inhibition at 0.1 µM [1] read?
**A.** 0%

**Q.** And the inhibition at 0.1 µM [2]?
**A.** 17%

**Q.** And the inhibition at 0.1 µM [3]?
**A.** 6%

**Q.** What about the inhibition at 0.1 µM [4] of the same compound?
**A.** 11%

**Q.** What about the inhibition at 0.1 µM [5] of the same compound?
**A.** 40%

**Q.** And the inhibition at 0.1 µM [6]?
**A.** 21%

**Q.** What about the inhibition at 0.1 µM [7] of the same compound?
**A.** 6%

**Q.** And the inhibition at 0.1 µM [8]?
**A.** 4%

**Q.** What about the inhibition at 0.1 µM [9] of the same compound?
**A.** 9%

**Q.** And the inhibition at 0.1 µM [10]?
**A.** 6%

**Q.** What about the IC50 ([11]; read-out: cellular IC50) of the same compound?
**A.** < 100 nM

**Q.** And the IC50 ([11]; read-out: cellular IC50, range)?
**A.** 10 to 64 nM

**Q.** And the cell cycle effect [12]?
**A.** strong G1 arrest

**Q.** What about the tumor growth [13] of the same compound?
**A.** slowed tumor growth modestly

**Q.** And the tumor growth ([14]; 100 mg/kg twice daily)?
**A.** tumor regression

**Q.** What about the tumor growth ([14]; all other treatment groups: 25, 50 mg/kg twice daily, 100 mg/kg once a day) of the same compound?
**A.** significant growth inhibition

**Q.** And the tumor growth [15]?
**A.** significantly inhibited

**Q.** What about the pKa ([16]; read-out: pKa (acidic)) of the same compound?
**A.** 10.4

**Q.** What about the pKa ([16]; read-out: pKa (basic)) of the same compound?
**A.** 5.08

**Q.** And the half-life at 1 µmol/L ([17]; both sexes, human, liver microsomes, 1 µmol/L, 60 min incubation, read-out: Half-life)?
**A.** > 1 h

**Q.** What about the half-life at 1 µmol/L ([17]; both sexes, human, liver microsomes, longer than the duration of the experiment, read-out: calculated half-life (in parenthesis)) of the same compound?
**A.** 1.78 h

**Q.** And the half-life at 1 µmol/L ([17]; male, CD-1, liver microsomes, Mouse microsomes, 60 min incubation)?
**A.** 0.44 h

**Q.** What about the half-life at 1 µmol/L ([17]; male, Sprague-Dawley, rat, liver microsomes, 1 µmol/L, 60 min incubation, read-out: Half-life) of the same compound?
**A.** > 1 h

**Q.** What about the half-life at 1 µmol/L ([17]; male, Sprague-Dawley, rat, liver microsomes, longer than the duration of the experiment, read-out: calculated half-life (in parenthesis)) of the same compound?
**A.** 1.11 h

**Q.** What about the half-life at 1 µmol/L ([17]; male, beagle, dog, liver microsomes, 1 µmol/L, 60 min incubation, read-out: Half-life) of the same compound?
**A.** > 1 h

**Q.** And the half-life at 1 µmol/L ([17]; male, beagle, dog, liver microsomes, longer than the duration of the experiment, read-out: calculated half-life (in parenthesis))?
**A.** 1.34 h

Source: PMC10905675, “INX-315, a Selective CDK2 Inhibitor, Induces Cell Cycle Arrest and Senescence in Solid Tumors” (Cancer Discovery, 2023)
